Data reported in US11542271B2, “Fused heteroaromatic-aniline compounds for treatment of dermal disorders” (NFlection Therapeutics, Inc., priority 2017, dated 2023).
Like-named read-outs stand apart in the source and are kept apart here.

Experiments:
MAP2K1 (MEK1) = biological target: T1, MAP2K1 (MEK1) (Homo sapiens, UniProt Q02750); experiment: MEK Inhibition Assay (Biological Example 1b, Z'-LYTE); conditions: Biological Example 1b (compounds 1, 3, 5, 7-8); read-out: Assay 1: biochemical MEK IC50
T1 construct: purchased ThermoFisher
T1 sequence (Q02750 whole entry): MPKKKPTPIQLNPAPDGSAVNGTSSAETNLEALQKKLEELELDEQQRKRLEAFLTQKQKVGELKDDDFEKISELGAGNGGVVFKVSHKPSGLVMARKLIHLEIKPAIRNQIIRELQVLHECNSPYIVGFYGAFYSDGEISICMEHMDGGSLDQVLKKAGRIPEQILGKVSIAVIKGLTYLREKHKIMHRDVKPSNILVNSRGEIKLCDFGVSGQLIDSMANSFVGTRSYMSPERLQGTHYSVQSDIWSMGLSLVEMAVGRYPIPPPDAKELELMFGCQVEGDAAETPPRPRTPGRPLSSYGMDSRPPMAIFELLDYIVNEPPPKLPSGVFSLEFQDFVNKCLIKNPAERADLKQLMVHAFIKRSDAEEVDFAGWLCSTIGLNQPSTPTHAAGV
Experimental: MEK1 inhibitory activity of compounds were tested using the following procedure (protocol available at thermofisher.com/content/dam/LifeTech/migration/files/drug-discovery/pdfs.par.60256.file.dat/20130430%20ssbk%20customer%20protocol%20and%20assay%20conditions.pdf). The Z′-LYTE biochemical assay (ThermoFisher) employs a fluorescence-based, coupled-enzyme format and is based on the differential sensitivity of phosphorylated and non-phosphorylated peptides to proteolytic cleavage.
Test compounds in 100% DMSO were screened in 1% DMSO (final) in the well. For 10 point titrations, 3-fold serial dilutions are conducted from the starting concentration of 30 μM.
After the 1 hour incubation, 5 μL of a 1:1024 dilution of Development Reagent A (available from Invitrogen, catalog no. PV3295) was added.
ATP solutions were diluted to a 4× working concentration in Kinase Buffer (50 mM HEPES pH 7.5, 0.01% BRIJ-35, 10 mM MgCl2, 1 mM EGTA). ATP Km apparent was previously determined using a Z′-LYTE assay. The Development Reagent was diluted in Development Buffer (available from Invitrogen, catalog no. P3127).
Assay Protocol: 2.5 μL of 4× test compound or 100 nL of 100× Test Compound plus 2.4 μL Kinase Buffer, 5 μL of the 2× Peptide/Kinase Mixture, 2.5 μL of 4×ATP Solution were added to the plates and placed on a shake plate for 30-seconds. The kinase reaction was allowed to proceed for 60-minute at room temperature, before 5 μL of Development Reagent Solution was added, and the mixture agitated for 30-seconds on a shake plate. The mixture was incubated for 60-minute at room temperature. Fluorescence was measured using a plate reader and the data were analyzed.
This control yielded 100% cleaved peptide in the Development Reaction. The 100% Phosphorylation Control, which consisted of a synthetically phosphorylated peptide of the same sequence as the peptide substrate, was designed to allow for the calculation of percent phosphorylation. This control yielded a very low percentage of cleaved peptide in the Development Reaction. The 0% Phosphorylation and 100% Phosphorylation Controls allow for the calculation of the percent phosphorylation achieved in a specific reaction well.
The minimum emission ratio in a screen was established by the 0% Inhibition Control, which contained active kinase. This control was designed to produce a 10-50% phosphorylated peptide in the Kinase Reaction. Cascade assays may produce up to 70% phosphorylated peptide.
A known inhibitor control standard curve, 10 point titration, was run for each individual kinase on the same plate as the kinase to ensure the kinase was inhibited within an expected IC50 range previously determined.
The following controls are prepared for each concentration of Test Compound assayed. […] The expected value for a non-interfering compound should be 100%. Any value outside of 90% to 110% was flagged. […] The expected value for a non-fluorescence compound should be 0%. Any value >20% was flagged.
The data in Table A was calculated. XLfit from IDBS was used. The dose response curve was curve fit to model number 205 (sigmoidal dose-response model).

[1] = S9 Stability Assay, human liver S9 fraction; assay type: in vitro ADME; conditions: for half-life at 1 μM / microsomal CLint at 1 μM: human liver S9 fraction, pH 7.4
Experimental: Compounds were assessed for metabolic stability in human skin by assessing their rate of disappearance from human S9 skin fraction. Similarly, compounds were assessed for metabolic stability in human liver by assessing their rate of disappearance from human S9 liver fraction. The protocol below can be used to assess the difference between skin and hepatic metabolism.
The assay was carried out in 96-well microtiter plates at 37° C. Reaction mixtures (25 μL) contained a final concentration of 1 μM test compound, 2 mg/mL liver or skin S9 protein, and 1 mM NADPH in buffer (100 mM potassium phosphate, pH 7.4 buffer with 1 mM EDTA, 3 mM MgCl2). At each of the time points (0, 15, 30, and 60 minutes), 150 μL of quench solution (100% acetonitrile with 0.1% formic acid) with internal standard was transferred to each well. Besides the zero minute controls, mixtures containing the same components except the NADPH were also prepared as the negative control. Verapamil or testosterone was included as a positive control to verify assay performance. Plates were sealed and centrifuged at 4° C. for 15 minutes at 4000 rpm. The supernatant was transferred to fresh plates for LC/MS/MS analysis.
All samples were analyzed on LC/MS/MS using an AB Sciex API 4000 instrument, coupled to a Shimadzu LC-20AD LC Pump system. Analytical samples were separated using a Waters Atlantis T3 dC18 reverse phase HPLC column (20 mm×2.1 mm) at a flow rate of 0.5 mL/min. The mobile phase consisted of 0.1% formic acid in water (solvent A) and 0.1% formic acid in 100% acetonitrile (solvent B).
The extent of metabolism was calculated as the disappearance of the test compound, compared to the 0-min control reaction incubations. Initial rates were calculated for the compound concentration and used to determine t1/2 values and subsequently, the intrinsic clearance, CLint=(0.693) (1/t1/2 (min)) (mL incubation/mg of S9 protein).

A375 cells = experiment: A375 (BRAF) GI50 cell-based assay (Cell Titer-Glo); conditions: Homo sapiens, A-375, 72 hours, read-out: Assay 2: A375 (BRAF) GI50
Experimental: (§1) Alternatively, the following procedure can be used to measure cell-based activity. Test compounds were dissolved in DMSO in 10 mM stock. Cell Titer-Glo® 2.0 Luminescent cell viability assay reagent was purchased from Promega (Madison, Wis.). A375 and HCT116 cell lines were purchased from American Type Culture Collection (Manassas, Va.). For A375 cells, cell culture media was DMEM+10% FBS. For HCT116 cells, cell culture media was McCoy's 5A+10% FBS. All media were supplemented with 100 μg/mL of penicillin, and 100 μg/mL of streptomycin. Cultures were maintained at 37° C. in a humidified atmosphere of 5% CO2 and 95% air.
(§2) Test compounds were diluted in DMSO solution with 10-dose and 3-fold dilutions in a source plate starting at 10 mM. […] Luminescence was recorded by Envision 2104 Multilabel Reader (PerkinElmer, Santa Clara, Calif.). The number of viable cells in culture was determined based on quantitation of the ATP present in each culture well. […] Luminescence was recorded by Envision 2104 Multilabel Reader (PerkinElmer, Santa Clara, Calif.). The number of viable cells in culture was determined based on quantitation of the ATP present in each culture well. […] All parameters in the equation were calculated by GraphPad Prism 4 program. […] Accordingly, GI50 is the value of 10^X, where X was calculated by the Curve Fitting Equation when Y=50 using Excel.

HCT116 cells = experiment: HCT116 (Kras) GI50 cell-based assay (Cell Titer-Glo); conditions: Homo sapiens, HCT-116, 72 hours, read-out: Assay 3: HCT116 (Kras) GI50
Experimental: as §1, §2

MEK1 = biological target: T2, MEK1 (Homo sapiens, UniProt Q02750); experiment: MEK Inhibition Assay (Biological Example 1a, 33P-ATP, P81 filter-binding); conditions: Biological Example 1a (used for compounds 2 and 6); read-out: Assay 1: biochemical MEK IC50
T2 construct: N-terminal His-tagged recombinant human full length protein, expressed in insect cells; His (N); purchased Invitrogen PV3303; host or cells: insect cells
T2 sequence (Q02750 whole entry): as above
Experimental: MEK1 inhibitory activity of compounds were tested using the following procedure.
• Reaction buffer: 20 mM Hepes (pH 7.5), 10 mM MgCl2, 1 mM EGTA, 0.02% Brij35, 0.02 mg/mL bovine serum albumin, 0.1 mM Na3V04, 2 mM DTT, 1% DMSO • Enzyme: MEK1, Invitrogen cat #PV3303 • N-terminal His-tagged recombinant human full length protein, expressed in insect cells. Activated in vitro by RAF1. MW=49.2 kDa, GenBank Accession No. NP_002746. • Substrate: 5 μM ERK2 (K52R), • Kinase-dead mutant, (GenBank Accession No. NM_0011949), aa2-358 with N-terminal His6 tag, MW=43.63 kDa, expressed in E. coli.
The substrate was prepared in freshly prepared Reaction Buffer. The kinase was delivered into the substrate solution and gently mixed. Test compounds were delivered in 100% DMSO into the kinase reaction mixture by Acoustic technology (Echo550; nanoliter range), and incubated for 20 min at room temperature. ^33P-ATP was delivered into the reaction mixture to initiate the reaction. The reaction mixture was incubated for 2 hours at room temperature. Kinase activity was detected by P81 filter-binding method.

[2] = human liver S9, unit min printed in b472 and Table 1, not in this table, read-out: Assay 4: human liver S9 half-life
[3] = human, read-out: Assay 5: human liver S9 intrinsic clearance value (μL/min/mg protein)

SMILES	IC50 (MAP2K1 (MEK1)) [nM]	half-life at 1 μM [1, 2] [min]	microsomal CLint at 1 μM [1, 3] [µL/min/mg]	Assay 5: human liver S9 intrinsic clearance value (μL/min/mg protein) ([1]; human liver S9)	half-life at 1 μM ([1]; Table 1, 1 μM test compound, 2 mg/mL S9 protein, NADPH, read-out: Liver S9 t1/2) [min]	microsomal CLint at 1 μM ([1]; Table 1, read-out: CLint (μL/min/mg protein)) [µL/min/mg]	GI50 (A375 cells) [nM]	GI50 (HCT116 cells) [nM]	IC50 (MEK1) [nM]
C#Cc1ccc(Nc2sc3ncccc3c2C(=O)NOCCO)c(F)c1 [Ex. 1, 2-((4-ethynyl-2-fluorophenyl)amino)-N-(2-hydroxyethoxy)thieno[2,3-b]pyridine-3-carboxamide]	1030	29	11.8				141	348	
CSc1ccc(Nc2sc3ncccc3c2C(=O)NOCCO)c(F)c1 [Ex. 2, 2-((2-fluoro-4-(methylthio)phenyl)amino)-N-(2-hydroxyethoxy)thieno[2,3-b]pyridine-3-carboxamide]		16	21.2				145	257	915

Second part, the compound after the results:

IC50 (MAP2K1 (MEK1)) [nM]	half-life at 1 μM [1, 2] [min]	microsomal CLint at 1 μM [1, 3] [µL/min/mg]	Assay 5: human liver S9 intrinsic clearance value (μL/min/mg protein) ([1]; human liver S9)	half-life at 1 μM ([1]; Table 1, 1 μM test compound, 2 mg/mL S9 protein, NADPH, read-out: Liver S9 t1/2) [min]	microsomal CLint at 1 μM ([1]; Table 1, read-out: CLint (μL/min/mg protein)) [µL/min/mg]	GI50 (A375 cells) [nM]	GI50 (HCT116 cells) [nM]	IC50 (MEK1) [nM]	SMILES
256	54	6.36							Cc1ccc2c(C(=O)NOCCO)c(Nc3ccc(I)cc3F)sc2n1 [Ex. 5, 2-((2-Fluoro-4-iodophenyl)amino)-N-(2-hydroxyethoxy)-6-methylthieno[2,3-b]pyridine-3-carboxamide]
74			13.35	26	13.3				O=C(NOCCO)c1c(Nc2ccc(I)cc2F)sc2ncccc12 [Ex. 3, 2-((2-Fluoro-4-iodophenyl)amino)-N-(2-hydroxyethoxy)thieno[2,3-b]pyridine-3-carboxamide]
150	68	5.1							COc1cnc2sc(Nc3ccc(I)cc3F)c(C(=O)NOCCO)c2c1 [Ex. 7, 2-((2-Fluoro-4-iodophenyl)amino)-N-(2-hydroxyethoxy)-5-methoxythieno[2,3-b]pyridine-3-carboxamide]
								2910	COc1ccc2c(C(=O)NOCCO)c(Nc3ccc(I)cc3F)sc2n1 [Ex. 6, 2-((2-fluoro-4-iodophenyl)amino)-N-(2-hydroxyethoxy)-6-methoxythieno[2,3-b]pyridine-3-carboxamide]
